Experimental findings from US10596172B2 (Celgene CAR LLC, priority 2008, dated 2020) are described below.

A word on the EC50: it is the concentration needed to bring the measured effect to its halfway point.

Where two headings read alike, the source gives them in different places.

The target in one assay is JAK3 (Homo sapiens (Human), UniProt P52333). As to the kind of experiment: Omnia assay for potency assessment against the active form of JAK3. Format: biochemical. Particulars: read-out: JAK3 Inhibition. As for the experimental part: Briefly, 10× stocks of EGFR-WT (PV3872) from Invitrogen and EGFR-T790M/L858R (40350) from BPS Bioscience, San Diego, Calif., 1.13×ATP (AS001A) and appropriate Tyr-Sox conjugated peptide substrates (KCZ1001) were prepared in 1× kinase reaction buffer consisting of 20 mM Tris, pH 7.5, 5 mM MgCl2, 1 mM EGTA, 5 mM β-glycerophosphate, 5% glycerol (10× stock, KB002A) and 0.2 mM DTT (DS001A).
The Omnia Assay Protocol for potency assessment against JAK3 was performed in a substantially similar manner as that described in Example 251 above except that the modified JAK3-optimized reagent conditions were:
[JAK3]=5 nM, [ATP]=5 μM, [Y12-Sox]=5 μM (ATP KMapp˜5 μM).

Assay [1] concerns B cell lymphoma cell lines. As to the kind of experiment: B cell lymphoma proliferation assay. Format: cell-based.
The mark [2] stands for this setting: DHL4 B cell lymphoma cell line, read-out: EC50 (μM) DHL4.
The mark [3] stands for this setting: Homo sapiens, DOHH-2, DOHH2 B cell lymphoma cell line, read-out: EC50 (μM) DOHH2.
[4] abbreviates: Homo sapiens, WSUDLCL2, WSU-DLCL2 B cell lymphoma cell line, read-out: EC50 (μM) WSU-DLCL2.

Chain of JAK3 (P52333 whole entry): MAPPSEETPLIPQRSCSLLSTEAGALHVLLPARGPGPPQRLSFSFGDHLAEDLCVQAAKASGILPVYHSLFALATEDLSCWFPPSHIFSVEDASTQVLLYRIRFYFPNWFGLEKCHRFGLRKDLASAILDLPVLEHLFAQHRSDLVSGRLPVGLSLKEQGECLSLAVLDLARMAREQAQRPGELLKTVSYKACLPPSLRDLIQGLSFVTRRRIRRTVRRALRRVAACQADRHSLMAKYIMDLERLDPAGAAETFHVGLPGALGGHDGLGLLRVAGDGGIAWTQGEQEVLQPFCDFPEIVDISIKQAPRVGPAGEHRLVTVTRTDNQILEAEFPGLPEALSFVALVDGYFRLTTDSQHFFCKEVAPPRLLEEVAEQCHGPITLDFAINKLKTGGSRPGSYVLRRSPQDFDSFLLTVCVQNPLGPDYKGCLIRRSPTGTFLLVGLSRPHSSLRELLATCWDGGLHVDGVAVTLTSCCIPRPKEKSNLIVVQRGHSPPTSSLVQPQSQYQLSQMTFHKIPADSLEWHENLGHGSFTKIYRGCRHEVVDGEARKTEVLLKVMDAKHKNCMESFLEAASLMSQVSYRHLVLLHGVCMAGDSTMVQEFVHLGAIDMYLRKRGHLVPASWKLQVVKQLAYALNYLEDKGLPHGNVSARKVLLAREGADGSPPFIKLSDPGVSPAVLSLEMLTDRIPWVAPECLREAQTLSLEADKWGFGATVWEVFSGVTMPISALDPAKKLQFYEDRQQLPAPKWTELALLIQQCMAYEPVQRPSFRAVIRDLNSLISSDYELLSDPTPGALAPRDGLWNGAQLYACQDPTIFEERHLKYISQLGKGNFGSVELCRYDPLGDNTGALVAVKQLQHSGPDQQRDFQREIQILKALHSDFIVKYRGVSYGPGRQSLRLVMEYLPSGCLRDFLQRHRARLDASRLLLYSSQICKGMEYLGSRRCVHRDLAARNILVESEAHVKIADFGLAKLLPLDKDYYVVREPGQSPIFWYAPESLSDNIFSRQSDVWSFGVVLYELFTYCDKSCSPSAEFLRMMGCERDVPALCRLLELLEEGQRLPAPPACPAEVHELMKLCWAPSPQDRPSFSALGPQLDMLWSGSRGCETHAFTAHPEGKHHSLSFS

Take `C=CC(=O)Nc1cccc(Nc2nccc(Nc3cccc(C)c3)n2)c1` [Compound I-1, N-(3-(4-(m-tolylamino)pyrimidin-2-ylamino)phenyl)acrylamide]: the IC50 at JAK3 was less than 10 nM. Same read-out and setting: the value for `C=CC(=O)Nc1cccc(Nc2ncc(C)c(Nc3ccccc3)n2)c1` [Compound I-5, N-(3-(5-methyl-4-(phenylamino)pyrimidin-2-ylamino)phenyl) acrylamide] was less than 10 nM; that for `C=CC(=O)Nc1ccc(C)c(Nc2ncc(C)c(Nc3cccc(C)c3)n2)c1` [Compound I-8, N-(4-methyl-3-(5-methyl-4-(m-tolylamino)pyrimidin-2-ylamino)phenyl)acrylamide] was less than 10 nM. Still for that read-out and setting: with `C=CC(=O)Nc1cccc(Nc2ncc(C)c(Nc3cccc(Br)c3)n2)c1` [Compound I-9, N-(3-(4-(3-bromophenylamino)-5-methylpyrimidin-2-ylamino)phenyl) acrylamide] the figure was less than 10 nM; with `Cc1cnc(Nc2cccc(S(N)(=O)=O)c2)nc1Nc1ccc2c(c1)CCN(S(=O)(=O)C1CC1)C2` [Compound I-10, 3-(4-(2-(cyclopropylsulfonyl)-1,2,3,4-tetrahydroisoquinolin-6-ylamino)-5-methylpyrimidin-2-ylamino)benzenesulfonamide], […]; with `C=CC(=O)Nc1cccc(Nc2nc(Nc3cccc(S(N)(=O)=O)c3)ncc2C)c1` [Compound I-33, N-(3-(5-methyl-2-(3-sulfamoylphenylamino)pyrimidin-4-ylamino)phenyl)acrylamide], less than 10 nM.

Turning to `C=CC(=O)Nc1cccc(N(C)c2nc(Nc3ccccc3)ncc2C)c1` [Compound I-34, N-(3-(methyl(5-methyl-2-(phenylamino)pyrimidin-4-yl)amino)phenyl)acrylamide], at JAK3, the IC50 was 10 to 100 nM. The same measure, in the same setting: with `C=CC(=O)Nc1cccc(Nc2nc(Nc3cccc(OCCCNC(=O)OC(C)(C)C)c3)ncc2C)c1` [Compound I-45, tert-butyl 3-(3-(4-(3-acrylamidophenylamino)-5-methylpyrimidin-2-ylamino)phenoxy)propylcarbamate] the figure was less than 10 nM.

With `C=CC(=O)Nc1cccc(Nc2nc(Nc3ccc4[nH]ncc4c3)ncc2F)c1` [Compound I-156], the concentration giving a half-maximal response (EC50) in assay [1] (setting [2]) is 1 to 10 µM; in assay [1] (setting [3]), 0.1 to 1 µM; in assay [1] (setting [4]) it was 1 to 10 µM. For the molecule `C=CC(=O)Nc1cccc(Nc2nc(Nc3ccccc3)ncc2C#N)c1` [Compound I-157, N-(3-(5-cyano-2-(phenylamino)pyrimidin-4-ylamino)phenyl)acrylamide], the EC50 in assay [1] (setting [2]), in assay [1] (setting [3]) and in assay [1] (setting [4]) was 1 to 10 µM each time. `C=CC(=O)Nc1cccc(Nc2nc(Nc3cccc(OC)c3)ncc2OC)c1` [Compound I-158, N-(3-(5-methoxy-2-(3-methoxyphenylamino)pyrimidin-4-ylamino)phenyl)acrylamide]: the concentration giving a half-maximal response (EC50) in assay [1] (setting [2]), in assay [1] (setting [3]) and in assay [1] (setting [4]) was 1 to 10 µM each time. Take `C=CC(=O)Nc1cccc(Oc2nc(Nc3ccc(OC)nc3)ncc2C(=O)Nc2ccccc2)c1` [Compound I-159, 4-(3-acrylamidophenoxy)-2-(6-methoxypyridin-3-ylamino)-pyrimidine-5-carboxylic acid phenylamide]: the EC50 in assay [1] (setting [3]) fell in the range of 1 to 10 µM. For `C=CC(=O)Nc1cccc(Nc2nc(Nc3cccc(S(N)(=O)=O)c3)ncc2F)c1` [Compound I-160, N-(3-(5-fluoro-2-(3-sulfamoylphenylamino)pyrimidin-4-ylamino)phenyl)acrylamide], the EC50 in assay [1] (setting [2]), in assay [1] (setting [3]) and in assay [1] (setting [4]) was 1 to 10 µM in each case. As to `C=CC(=O)N1Cc2ccc(Nc3nc(Nc4ccc(OC)nc4)ncc3F)cc2C1` [Compound I-165, 1-(5-(5-fluoro-2-(6-methoxypyridin-3-ylamino)pyrimidin-4-ylamino)isoindolin-2-yl)prop-2-en-1-one], the EC50 in assay [1] (setting [2]), in assay [1] (setting [3]) and in assay [1] (setting [4]) was 1 to 10 µM throughout. For `C=CC(=O)N1CCc2ccc(Nc3nc(Nc4ccc(OC)nc4)ncc3F)cc21` [Compound I-166, 1-(6-(5-fluoro-2-(6-methoxypyridin-3-ylamino)pyrimidin-4-ylamino)indolin-1-yl)prop-2-en-1-one], the EC50 in assay [1] (setting [2]), in assay [1] (setting [3]) and in assay [1] (setting [4]) was 1 to 10 µM each time. As to `C=CC(=O)Nc1cccc(Nc2nc(Nc3ccc(OC)nc3)ncc2C2CC2)c1` [Compound I-167, N-(3-(5-cyclopropyl-2-(6-methoxypyridin-3-ylamino)pyrimidin-4-ylamino)phenyl)acrylamide], in assay [1] (setting [3]), the EC50 was 1 to 10 µM. Still for that read-out and setting: the value for `C=CC(=O)N1CCOc2ccc(Nc3nc(Nc4ccc(N5CCOCC5)nc4)ncc3C(C)=O)cc21` [Compound I-168, 1-{6-[5-Acetyl-2-(6-morpholin-4-yl-pyridin-3-ylamino)-pyrimidin-4-ylamino]-2,3-dihydro-benzo[1,4]oxazin-4-yl}-propenone] was 1 to 10 µM; that for `C=CC(=O)N1CCOc2ccc(Nc3nc(Nc4ccc(N5CCOCC5)cc4)ncc3C(C)=O)cc21` [Compound I-169, 1-{6-[5-Acetyl-2-(4-morpholin-4-yl-phenylamino)-pyrimidin-4-ylamino]-2,3-dihydro-benzo[1,4]oxazin-4-yl}-propenone] was 1 to 10 µM; that for `C=CC(=O)Nc1cccc(N(C(=O)C=C)c2nc(Nc3ccc(OC)nc3)ncc2C#N)c1` [Compound I-171, N-(3-acrylamidophenyl)-N-(5-cyano-2-(6-methoxypyridin-3-ylamino)pyrimidin-4-yl)acrylamide] was 1 to 10 µM. On the same count and under the same terms, the value for `C=CC(=O)Nc1cccc(Nc2nc(Nc3ccc(OC(C)C)nc3)ncc2F)c1` [Compound I-172, N-(3-(5-fluoro-2-(6-isopropoxypyridin-3-ylamino)pyrimidin-4-ylamino)phenyl)acrylamide] was 1 to 10 µM; that for `C=CC(=O)Nc1cccc(Nc2nc(Nc3ccc(OC)nc3)ncc2C#N)c1` [Compound I-173, N-(3-(5-cyano-2-(6-methoxypyridin-3-ylamino)pyrimidin-4-ylamino)phenyl)acrylamide] was 1 to 10 µM; that for `C=CC(=O)Nc1cccc(Nc2nc(Nc3ccc4c(c3)NCCO4)ncc2F)c1` [Compound I-174] was 1 to 10 µM. For `C=CC(=O)Nc1cccc(Oc2nc(Nc3ccc(OC)nc3)ncc2C)c1` [Compound I-186, N-(3-(2-(6-methoxypyridin-3-ylamino)-5-methylpyrimidin-4-yloxy)phenyl)acrylamide], the EC50 in assay [1] (setting [2]) and in assay [1] (setting [3]) was 1 to 10 µM in each case. Consider `C=CC(=O)Nc1cccc(Oc2nc(Nc3ccc(OC)nc3)ncc2C(C)=O)c1` [Compound I-188, N-{3-[5-Acetyl-2-(6-methoxy-pyridin-3-ylamino)-pyrimidin-4-yloxy]-phenyl}-acrylamide], for which, in assay [1] (setting [3]), the EC50 lay within 1 to 10 µM. As to `C=CC(=O)Nc1cccc(Nc2nc(Nc3ccc(OC)nc3)ncc2C(C)=O)c1` [Compound I-189, N-{3-[5-Acetyl-2-(6-methoxy-pyridin-3-ylamino)-pyrimidin-4-ylamino]-phenyl}-acrylamide], the values for the EC50 in assay [1] (setting [2]), in assay [1] (setting [3]) and in assay [1] (setting [4]) were 1 to 10 µM, more than 10 µM and more than 10 µM, respectively. On to `C=CC(=O)Nc1cccc(Nc2nc(Nc3ccc(OC)nc3)ncc2OC)c1` [Compound I-192, N-(3-(5-methoxy-2-(6-methoxypyridin-3-ylamino)pyrimidin-4-ylamino)phenyl)acrylamide], for which the EC50 was 1 to 10 µM in assay [1] (setting [3]) and more than 10 µM in assay [1] (setting [4]).

Turning to `C=CC(=O)N1CCOc2ccc(Nc3nc(Nc4ccc(OC)nc4)ncc3F)cc21` [Compound I-194, 1-(6-(5-fluoro-2-(6-methoxypyridin-3-ylamino)pyrimidin-4-ylamino)-2H-benzo[b][1,4]oxazin-4(3H)-yl)prop-2-en-1-one], the concentration giving a half-maximal response (EC50) in assay [1] (setting [2]), in assay [1] (setting [3]) and in assay [1] (setting [4]) was 1 to 10 µM each time.

`C=CC(=O)Nc1cccc(Nc2nc(Nc3cccc(OCCCn4ccnc4)c3)ncc2F)c1` [Compound I-204, N-(3-(2-(3-(3-(1H-imidazol-1-yl)propoxy)phenylamino)-5-fluoropyrimidin-4-ylamino)phenyl)acrylamide]: the EC50 in assay [1] (setting [3]) and in assay [1] (setting [4]) was 1 to 10 µM throughout. For `C=CC(=O)Nc1cccc(Nc2nc(Nc3cccc(OCCCN4CCOCC4)c3)ncc2F)c1` [Compound I-208, N-(3-(5-fluoro-2-(3-(3-morpholinopropoxy)phenylamino)pyrimidin-4-ylamino)phenyl)acrylamide], the concentration for a half-maximal effect (EC50) in assay [1] (setting [3]) and in assay [1] (setting [4]) was 1 to 10 µM each time. As for `C=CC(=O)Nc1cccc(Nc2nc(Nc3ccc(OC)nc3)ncc2C(N)=O)c1` [Compound I-209, 4-(3-acrylamidophenylamino)-2-(6-methoxypyridin-3-ylamino)pyrimidine-5-carboxamide], the values for the EC50 in assay [1] (setting [3]) and in assay [1] (setting [4]) were more than 10 µM and 1 to 10 µM, respectively. On the same counts, the results for `C=CC(=O)Nc1cccc(Nc2nc(Nc3cccc(OC)c3)ncc2C(N)=O)c1` [Compound I-210, 4-(3-acrylamidophenylamino)-2-(3-methoxyphenylamino)pyrimidine-5-carboxamide] are 1 to 10 µM and 1 to 10 µM. On the same counts, the results for `C=CC(=O)Nc1cccc(Oc2nc(Nc3ccc(OC)nc3)ncc2F)c1` [Compound I-217] are more than 10 µM and more than 10 µM.

As for `C=CC(=O)Nc1cccc(Nc2nc(Nc3cccc(OCCN(CC)CC)c3)ncc2F)c1` [Compound I-298], the EC50 in assay [1] (setting [4]) lay in the range of 1 to 10 µM.
